Measured values from PubChem BioAssay AID1919013 (Molecular Pharmacology Branch, DTP, NCI, 2023).

Test system: LG0703-F498-PDC complex spheroid growth
Assay: Anticancer human tumor LG0703-F498-PDC patient-derived lung adenocarcinoma cell line growth inhibition [AhR]
Conditions: for IC50: curve of first compound; for viability, T/C: stronger effect = lower value
Outline: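 Complex tumor spheroids co-cultured with HUVEC and human MSC stroma; AhR antagonists tested in combination with standard-of-care and investigational agents. Top concentration at or near clinical Cmax (else 10 microM), half-log dilutions; growth expressed as percent test/control.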

[1] = second compound 0.1 µM, first compound 0.000949 µM
[2] = second compound 0.1 µM, first compound 0.003 µM
[3] = second compound 0.1 µM, first compound 0.00949 µM
[4] = second compound 0.1 µM, first compound 0.03 µM
[5] = second compound 0.1 µM, first compound 0.0949 µM
[6] = second compound 0.1 µM, first compound 0.3 µM
[7] = second compound 0.316 µM, first compound 0.000949 µM
[8] = second compound 0.316 µM, first compound 0.003 µM
[9] = second compound 0.316 µM, first compound 0.00949 µM
[10] = second compound 0.316 µM, first compound 0.03 µM
[11] = second compound 0.316 µM, first compound 0.0949 µM
[12] = second compound 0.316 µM, first compound 0.3 µM
[13] = second compound 1 µM, first compound 0.000949 µM
[14] = second compound 1 µM, first compound 0.003 µM
[15] = second compound 1 µM, first compound 0.00949 µM
[16] = second compound 1 µM, first compound 0.03 µM
[17] = second compound 1 µM, first compound 0.0949 µM
[18] = second compound 1 µM, first compound 0.3 µM
[19] = second compound 3.16 µM, first compound 0.000949 µM
[20] = second compound 3.16 µM, first compound 0.003 µM
[21] = second compound 3.16 µM, first compound 0.00949 µM
[22] = second compound 3.16 µM, first compound 0.03 µM
[23] = second compound 3.16 µM, first compound 0.0949 µM
[24] = second compound 3.16 µM, first compound 0.3 µM
[25] = second compound 10 µM, first compound 0.000949 µM
[26] = second compound 10 µM, first compound 0.003 µM
[27] = second compound 10 µM, first compound 0.00949 µM
[28] = second compound 10 µM, first compound 0.03 µM
[29] = second compound 10 µM, first compound 0.0949 µM
[30] = second compound 10 µM, first compound 0.3 µM
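Further: luminescence taken as a proxy for viable cell amount.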
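Wherever viability, T/C is given: percent of DMSO vehicle control where 100% means growth equal to vehicle.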

Molecule `CC(C)CC(NC(=O)C(Cc1ccccc1)NC(=O)c1cnccn1)B(O)O` (stereo not given) + Cc1cncc(-c2nc(NCCc3c[nH]c4ccccc34)c3ncn(C(C)C)c3n2)c1 has an IC50 (second compound 0.1 µM) of 4.06 nM, an IC50 (second compound 0.316 µM) of 4.36 nM and an IC50 (second compound 1 µM) of 3.62 nM. The IC50 (second compound 3.16 µM) was 1.12 nM, the IC50 (second compound 10 µM) was less than 0.949 nM and the viability, T/C [1] was 90.8%. For the same molecule, the viability, T/C [2] was 65.4%, the viability, T/C [3] was 6.78% and the viability, T/C [4] was 0.57%. For the same molecule, the viability, T/C [5] was 0.07%, the viability, T/C [6] was 0.18% and the viability, T/C [7] was 101%. The viability, T/C [8] was 71.3%, the viability, T/C [9] was 5.68% and the viability, T/C [10] was 0.52%. For the same molecule, the viability, T/C [11] was 0.13%, the viability, T/C [12] was 0.41% and the viability, T/C [13] was 115%. It also gave a viability, T/C [14] of 58.9%, a viability, T/C [15] of 4.01% and a viability, T/C [16] of 0.74%. The viability, T/C [17] was 0.04%, the viability, T/C [18] was 0.35% and the viability, T/C [19] was 52.8%. The viability, T/C [20] was 33.7%, the viability, T/C [21] was 1.21% and the viability, T/C [22] was 0.06%. For the same molecule, the viability, T/C [23] was 0.5%, the viability, T/C [24] was 0.67% and the viability, T/C [25] was 1.32%. For the same molecule, the viability, T/C [26] was 0.98%, the viability, T/C [27] was 0.8% and the viability, T/C [28] was 0.13%. It also gave a viability, T/C [29] of 1.1% and a viability, T/C [30] of 1.18%.
`CCc1c2c(nc3ccc(O)cc13)-c1cc3c(c(=O)n1C2)COC(=O)[C@]3(O)CC` + Cc1cncc(-c2nc(NCCc3c[nH]c4ccccc34)c3ncn(C(C)C)c3n2)c1 gave an IC50 (second compound 0.1 µM) of 15.3 nM, an IC50 (second compound 0.316 µM) of 11.1 nM and an IC50 (second compound 1 µM) of 11.9 nM. The IC50 (second compound 3.16 µM) was less than 0.949 nM, the IC50 (second compound 10 µM) was less than 0.949 nM and the viability, T/C [1] was 102%. The viability, T/C [2] was 82.4%, the viability, T/C [3] was 55.5% and the viability, T/C [4] was 39.3%. It also gave a viability, T/C [5] of 29.1%, a viability, T/C [6] of 19.2% and a viability, T/C [7] of 92.1%. For the same molecule, the viability, T/C [8] was 72.4%, the viability, T/C [9] was 51.2% and the viability, T/C [10] was 37.1%. For the same molecule, the viability, T/C [11] was 25.2%, the viability, T/C [12] was 18.3% and the viability, T/C [13] was 80.5%. It also gave a viability, T/C [14] of 76.5%, a viability, T/C [15] of 49.7% and a viability, T/C [16] of 35.7%. It also gave a viability, T/C [17] of 22.1%, a viability, T/C [18] of 13.6% and a viability, T/C [19] of 44.5%. The viability, T/C [20] was 37.7%, the viability, T/C [21] was 33% and the viability, T/C [22] was 29.1%. The viability, T/C [23] was 16.3%, the viability, T/C [24] was 11.9% and the viability, T/C [25] was 1.16%. For the same molecule, the viability, T/C [26] was 1.16%, the viability, T/C [27] was 2.25% and the viability, T/C [28] was 1.82%. The viability, T/C [29] was 1.25% and the viability, T/C [30] was 1.61%.
For `COc1cc(Nc2ncc3c(n2)-c2ccc(Cl)cc2C(c2c(F)cccc2OC)=NC3)ccc1C(=O)O` + Cc1cncc(-c2nc(NCCc3c[nH]c4ccccc34)c3ncn(C(C)C)c3n2)c1, the IC50 (second compound 0.1 µM) was 3970 nM, the IC50 (second compound 0.316 µM) was 5260 nM and the IC50 (second compound 1 µM) was 2830 nM. For the same molecule, the IC50 (second compound 3.16 µM) was less than 31.6 nM, the IC50 (second compound 10 µM) was less than 31.6 nM and the viability, T/C (second compound 0.1 µM, first compound 0.0316 µM) was 88.6%. It also gave a viability, T/C (second compound 0.1 µM, first compound 0.1 µM) of 77.1%, a viability, T/C (second compound 0.1 µM, first compound 0.316 µM) of 65.4% and a viability, T/C (second compound 0.1 µM, first compound 1 µM) of 65.8%. The viability, T/C (second compound 0.1 µM, first compound 3.16 µM) was 60.2%, the viability, T/C (second compound 0.1 µM, first compound 10 µM) was 35% and the viability, T/C (second compound 0.316 µM, first compound 0.0316 µM) was 81.8%. For the same molecule, the viability, T/C (second compound 0.316 µM, first compound 0.1 µM) was 80.5%, the viability, T/C (second compound 0.316 µM, first compound 0.316 µM) was 58.9% and the viability, T/C (second compound 0.316 µM, first compound 1 µM) was 78.2%. For the same molecule, the viability, T/C (second compound 0.316 µM, first compound 3.16 µM) was 58.1%, the viability, T/C (second compound 0.316 µM, first compound 10 µM) was 38.2% and the viability, T/C (second compound 1 µM, first compound 0.0316 µM) was 94.4%. For the same molecule, the viability, T/C (second compound 1 µM, first compound 0.1 µM) was 70.7%, the viability, T/C (second compound 1 µM, first compound 0.316 µM) was 63% and the viability, T/C (second compound 1 µM, first compound 1 µM) was 63.7%. The viability, T/C (second compound 1 µM, first compound 3.16 µM) was 55.9%, the viability, T/C (second compound 1 µM, first compound 10 µM) was 35.1% and the viability, T/C (second compound 3.16 µM, first compound 0.0316 µM) was 45.7%. The viability, T/C (second compound 3.16 µM, first compound 0.1 µM) was 33.3%, the viability, T/C (second compound 3.16 µM, first compound 0.316 µM) was 38.1% and the viability, T/C (second compound 3.16 µM, first compound 1 µM) was 34.6%. For the same molecule, the viability, T/C (second compound 3.16 µM, first compound 3.16 µM) was 18.9%, the viability, T/C (second compound 3.16 µM, first compound 10 µM) was 10.2% and the viability, T/C (second compound 10 µM, first compound 0.0316 µM) was 1.81%. The viability, T/C (second compound 10 µM, first compound 0.1 µM) was 1.7%, the viability, T/C (second compound 10 µM, first compound 0.316 µM) was 2.07% and the viability, T/C (second compound 10 µM, first compound 1 µM) was 1.87%. The viability, T/C (second compound 10 µM, first compound 3.16 µM) was 1.84% and the viability, T/C (second compound 10 µM, first compound 10 µM) was 3.35%.
